Like-named read-outs stand apart in the source and are kept apart here.
How the values were obtained:
[1] = target: T1, Rho-Kinase II (ROKα) (Rattus norvegicus, UniProt Q62868); assay: Inhibition of recombinant Rho-kinase II (ROKα), 33P-phosphate incorporation into S6 substrate peptide; format: biochemical; settings: recombinant Rho-Kinase II (Upstate Biotechnology), S6 Phosphate-Acceptor-Peptide, 33P-ATP, 20 min at 37°C
T1 construct: purchased Upstate Biotechnology
From the text: (§1) In einem in vitro-Assay mit rekombinanter Rho-Kinase-II wird die Hemmung des Enzyms untersucht. Die gefäßrelaxierende Wirkung wird an Phenylephrin-induzierten Kontraktionen isolierter Ringe der Kaninchen-Arteria-Saphena bestimmt. Die Eignung der erfindungsgemäßen Verbindungen zur Behandlung von kardiovaskulären Erkrankungen kann durch Untersuchung der blutdrucksenkenden Wirkung an narkotisierten Ratten gezeigt werden.
Die Aktivität der Rho-Kinase wird durch den Einbau von ^33P-Phosphat in ein Substratpeptid bestimmt. Dazu wird kommerziell erhältliche Rho-Kinase II (Upstate Biotechnology) in Gegenwart des S6 Phosphate-Acceptor-Peptides mit den Testsubstanzen oder einer Lösungsmittelkontrolle 10 min bei 37°C vorinkubiert. Anschliessend wird die Kinase-Reaktion durch Zugabe von ^33P-markiertem ATP gestartet. Nach 20 min bei 37°C wird die Reaktion durch Zugabe von H3PO4 gestoppt. Aliquots werden auf Filter pipettiert, die Filter gewaschen und anschließend mit Scintillator beschichtet. Die Radioaktivität der am Filter gebundenen ^33P-markierten Peptide wird in einem Micro-Beta-Counter gemessen. Der IC50-Wert entspricht der Konzentration einer Testsubstanz bei welcher der Rho-Kinase katalysierte Einbau von ^33P in das Peptid im Vergleich zu einer Lösungsmittelkontrolle um 50 % gehemmt ist. Die experimentellen Daten sind in der folgenden Tabelle zusammengestellt.

[2] = tested on: Kaninchen-Arteria-Saphena; assay: Vasorelaxant effect in vitro: phenylephrine-induced contractions of isolated rabbit saphenous artery rings
From the text: as §1
3 mm breite Ringe der isolierten Kaninchen-Arteria-Saphena werden einzeln in 5 ml-Organbäder mit 37°C warmer, carbogenbegaster Krebs-Henseleit-Lösung gebracht. Der Gefäßtonus wird isometrisch erfasst und registriert. Kontraktionen werden durch Zugabe von 3x10^-8 g/ml Phenylephrin induziert und nach 4 min wieder ausgewaschen. Nach mehreren Kontrollzyklen wird die zu untersuchende Substanz mit jedem weiteren Durchgang in steigender Dosierung vorinkubiert und die darauffolgende Kontraktion mit der Höhe der letzten Kontrollkontraktion verglichen. Es wird die Konzentration errechnet, die erforderlich ist, um die Höhe des Kontrollwertes um 50 % zu reduzieren (IC50). Die experimentellen Daten sind in der folgenden Tabelle zusammengestellt.

[3] = isolated rings of rabbit Arteria saphena, contraction induced by 3x10^-8 g/ml Phenylephrin, concentration reducing control contraction by 50 %, read-out: IC50

T1 sequence (Q62868 whole entry): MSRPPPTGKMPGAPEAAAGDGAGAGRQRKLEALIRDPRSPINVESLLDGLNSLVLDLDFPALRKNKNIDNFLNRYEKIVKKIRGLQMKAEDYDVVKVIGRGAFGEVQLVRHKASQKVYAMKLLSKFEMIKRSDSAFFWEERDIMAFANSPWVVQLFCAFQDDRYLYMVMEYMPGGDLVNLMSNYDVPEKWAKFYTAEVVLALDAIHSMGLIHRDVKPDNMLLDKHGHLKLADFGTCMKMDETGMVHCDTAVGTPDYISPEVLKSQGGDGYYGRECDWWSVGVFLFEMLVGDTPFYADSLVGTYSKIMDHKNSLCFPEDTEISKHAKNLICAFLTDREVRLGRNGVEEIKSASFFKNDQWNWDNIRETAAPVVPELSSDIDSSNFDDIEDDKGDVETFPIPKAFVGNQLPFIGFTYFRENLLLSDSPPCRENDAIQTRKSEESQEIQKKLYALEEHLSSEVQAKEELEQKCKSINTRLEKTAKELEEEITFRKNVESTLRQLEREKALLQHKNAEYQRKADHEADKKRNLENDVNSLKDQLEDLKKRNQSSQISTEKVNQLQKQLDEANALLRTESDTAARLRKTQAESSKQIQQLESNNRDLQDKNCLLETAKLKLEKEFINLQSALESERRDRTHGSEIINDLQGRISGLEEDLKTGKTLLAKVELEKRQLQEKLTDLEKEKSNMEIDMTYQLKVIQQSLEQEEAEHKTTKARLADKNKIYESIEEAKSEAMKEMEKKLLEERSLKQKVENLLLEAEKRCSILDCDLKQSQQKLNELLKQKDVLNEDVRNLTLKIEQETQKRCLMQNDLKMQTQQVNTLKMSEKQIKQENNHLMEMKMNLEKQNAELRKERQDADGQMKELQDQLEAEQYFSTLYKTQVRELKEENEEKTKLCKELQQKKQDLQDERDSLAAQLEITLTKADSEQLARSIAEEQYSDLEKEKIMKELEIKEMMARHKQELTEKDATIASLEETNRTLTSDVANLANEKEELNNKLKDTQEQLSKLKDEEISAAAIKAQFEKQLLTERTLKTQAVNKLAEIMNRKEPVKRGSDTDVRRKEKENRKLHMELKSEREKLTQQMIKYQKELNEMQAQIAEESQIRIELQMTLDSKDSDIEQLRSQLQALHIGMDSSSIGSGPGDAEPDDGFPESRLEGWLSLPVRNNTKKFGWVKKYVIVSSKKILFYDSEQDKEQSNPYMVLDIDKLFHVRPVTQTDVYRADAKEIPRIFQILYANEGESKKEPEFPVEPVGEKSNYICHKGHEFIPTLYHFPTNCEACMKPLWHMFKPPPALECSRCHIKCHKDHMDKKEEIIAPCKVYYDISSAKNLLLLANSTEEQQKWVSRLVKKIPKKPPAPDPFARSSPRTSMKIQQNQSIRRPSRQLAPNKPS

Row | Structure (SMILES) | IC50 [1] [nM] | IC50 [2, 3] [nM] | IC50 [2] [nM]
1 | Nc1nc(Nc2ccc(Sc3ccncc3)c(F)c2)cc(N2C[C@H]3CCCN[C@H]3C2)n1 [Beispiel 20] | 11 |  | 1700
2 | Nc1nc(Nc2cc(F)c(Sc3ccncc3)c(Cl)c2)cc(N2C[C@H]3CCCN[C@H]3C2)n1 [Beispiel 22] | 6 | 900 | 
3 | Nc1nc(Nc2cc(F)c(Sc3ccncc3)c(F)c2)cc(N2C[C@H]3CCCN[C@H]3C2)n1 [Beispiel 59] | 5 | 360 | 

More lines, main results first:

Row | IC50 [1] [nM] | IC50 [2, 3] [nM] | Structure (SMILES) | IC50 [2] [nM]
4 | 7 | 760 | Nc1nc(Nc2ccc(Sc3ccncc3)c(F)c2)cc(-c2ccc3ncccc3c2)n1 [Beispiel 1, N-[2-Amino-6-(6-chinolinyl)-4-pyrimidinyl]-N-[3-fluor-4-(4-pyridinylsulfanyl)-phenyl]amin] | 
5 | 70 |  | Nc1nc(Nc2ccc(Sc3ccncc3)c(F)c2)cc(Oc2cccc(Cl)c2)n1 [Beispiel 56] | 

Source: patent publication EP1515965B1, “PHENYLAMINOPYRIMIDINES AND THEIR USE AS RHO-KINASE INHIBITORS” (Bayer Schering Pharma Aktiengesellschaft, priority 2002, dated 2003)
